One data set concerns the target T1, KACh channel (Homo sapiens, UniProt P48544+P48549).
T1 sequence (P48549 1-501): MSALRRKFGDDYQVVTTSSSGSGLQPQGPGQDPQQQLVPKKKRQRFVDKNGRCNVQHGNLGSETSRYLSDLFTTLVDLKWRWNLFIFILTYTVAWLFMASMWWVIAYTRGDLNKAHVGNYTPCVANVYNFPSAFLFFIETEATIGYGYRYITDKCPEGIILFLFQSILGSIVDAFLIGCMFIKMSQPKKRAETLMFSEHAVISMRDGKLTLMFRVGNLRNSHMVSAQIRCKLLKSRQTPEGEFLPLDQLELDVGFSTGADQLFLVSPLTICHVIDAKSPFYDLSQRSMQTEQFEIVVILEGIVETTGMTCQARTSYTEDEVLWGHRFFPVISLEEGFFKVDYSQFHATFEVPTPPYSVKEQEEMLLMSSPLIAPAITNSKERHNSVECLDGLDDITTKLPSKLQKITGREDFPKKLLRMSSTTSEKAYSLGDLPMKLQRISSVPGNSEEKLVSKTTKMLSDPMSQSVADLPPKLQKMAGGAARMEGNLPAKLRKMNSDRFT
T1 sequence (P48544 1-419): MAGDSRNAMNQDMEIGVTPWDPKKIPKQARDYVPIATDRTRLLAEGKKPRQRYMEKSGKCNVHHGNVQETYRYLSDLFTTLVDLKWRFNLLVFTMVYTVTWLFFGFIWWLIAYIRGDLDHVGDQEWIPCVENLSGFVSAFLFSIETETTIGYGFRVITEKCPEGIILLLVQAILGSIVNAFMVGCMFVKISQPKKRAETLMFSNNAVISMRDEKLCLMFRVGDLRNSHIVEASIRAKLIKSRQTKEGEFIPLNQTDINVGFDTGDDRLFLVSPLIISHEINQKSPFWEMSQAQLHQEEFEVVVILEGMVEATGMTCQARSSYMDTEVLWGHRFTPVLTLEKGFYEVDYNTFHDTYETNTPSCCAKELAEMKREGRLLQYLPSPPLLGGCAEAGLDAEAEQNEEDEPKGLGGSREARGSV
The data set is described as follows: KACh channel inhibitory action.

A further data set has as its system Hartley guinea pigs. The data set can be described thus: Termination effect on siponimod-induced bradyarrhythmia in isoflurane-anesthetized guinea pig model. It counts as in vivo. From the text:
Hartley guinea pigs (7 to 10 weeks old, male, available from Japan SLC, Inc.) were subjected to anesthetic induction by inhalation of isoflurane (available from Pfizer Japan Inc.), and each animal was held on an operating table having a heater function. The trachea was incised, and a tracheal cannula (KN-375, available from Natsume Seisakusho Co., Ltd.) was inserted. The tracheal cannula was connected to a ventilator (SN-480-7, available from Shinano Seisakusho Co., Ltd.), and artificial respiration was controlled by supplying 100% oxygen at a volume of 10 mL and a ventilation rate of 60 times/minute. Isoflurane (available from Pfizer Japan Inc.) anesthesia (about 1 to 4%, carrier gas: 100% oxygen) was used for maintenance of anesthesia. A catheter (BD intramedic polyethylene tubing PE50, available from Becton, Dickinson and Company) charged with 50 units/mL heparin (available from AY PHARMACEUTICALS CO., LTD.) was inserted into each of the carotid artery and the jugular vein and placed in the blood vessel. Systemic blood pressure was measured with a high-sensitivity DC amplifier (AD-611J, available from NIHON KOHDEN CORPORATION) via the catheter placed in the carotid artery. Electrodes were attached to the body surface, and a body surface electrocardiogram was measured with a high-sensitivity amplifier (AB-611J, available from NIHON KOHDEN CORPORATION). Blood pressure and electrocardiogram data were acquired and analyzed with PowerLab/Labchart system (available from ADInstruments). After stabilization of each parameter, siponimod (available from Nissan Chemical Corporation) was continuously administered intravenously at 0.01 mg/kg for 10 minutes via the catheter placed in the jugular vein, followed by observation of the presence or absence of atrioventricular block. The solvent used was a solution prepared by mixing of Polyethylene Glycol 400 (available from KANTO CHEMICAL CO., INC.) and dimethyl sulfoxide (available from FUJIFILM Wako Pure Chemical Corporation) at 9: 1 (volume ratio). […] Data were recorded and blood was collected 10, 20, and 30 minutes after initiation of administration of compound (I) dihydrochloride and at the time of termination of atrioventricular block. […] Data were analyzed for the presence or absence of the termination, the time required for the termination, and the plasma concentration of compound (I) at the time of termination. […] After thawing of the plasma, plasma drug concentrations were measured using LC/MS/MS after deproteinization with acetonitrile. […]

In the case of `Cc1cc(CO)nc2cc3c(cc12)OC(C)(C)[C@H](O)[C@H]3NCCc1ccccc1` [Compound (I), (3R,4S)-7-Hydroxymethyl-2,2,9-trimethyl-4-(phenethylamino)-3,4-dihydro-2H-pyrano[2,3-g]quinoline-3-ol], the “KACh channel inhibitory action” value on KACh channel is listed as “has a KACh channel inhibitory action”. Moreover, in the data set with Hartley guinea pigs (compound (I) dihydrochloride 0.1 mg/kg continuous i.v.), the “siponimod-induced bradyarrhythmia (atrioventricular block) termination” value was “completely terminated”. Further, the “Compound (I) concentration at the time of termination” value with Hartley guinea pigs (plasma, siponimod-induced block, 0.1 mg/kg continuous i.v. for 30 minutes, mean±standard error) is recorded as 22.7 ± 3.1 ng/mL. In the data set with Hartley guinea pigs (siponimod-induced block, compound (I) dihydrochloride 0.1 mg/kg continuous i.v. for 30 minutes), the “Number of cases where atrioventricular block was terminated” value was 5/5. For the same compound, the “Time required for the termination of atrioventricular block” value in the data set on Hartley guinea pigs (siponimod-induced block, compound (I) dihydrochloride 0.1 mg/kg continuous i.v. for 30 minutes, mean±standard error) is 638 ± 75 s.

For the origin of these results see patent US20260191853A1, “METHOD OF TREATING DRUG-INDUCED BRADYARRHYTHMIA” (OSAKA UNIVERSITY, priority 2022, published 2026).
